Assay results: article PMC6738096 (British Journal of Cancer, 2019)

Experiments:
hERG [1] = biological target: T1, hERG (Homo sapiens, UniProt Q12809); test: hERG in vitro test, displacement of dofetilide binding
[2] = Telemetered dog cardiovascular study; assay type: in vivo
Protocol: Potential in vivo effects on the respiratory, central nervous and cardiovascular systems were evaluated in oral dose studies in rats and dogs.

hNav1.5 = biological target: T2, hNav1.5 (Homo sapiens, UniProt Q14524); test: hNav1.5 expressed in HEK-293 cells; assay type: cell-based; conditions: read-out: IC50 against hNav1.5
T2 construct: expressed in transfected cells; host or cells: HEK-293
T2 sequence (Q14524 whole entry): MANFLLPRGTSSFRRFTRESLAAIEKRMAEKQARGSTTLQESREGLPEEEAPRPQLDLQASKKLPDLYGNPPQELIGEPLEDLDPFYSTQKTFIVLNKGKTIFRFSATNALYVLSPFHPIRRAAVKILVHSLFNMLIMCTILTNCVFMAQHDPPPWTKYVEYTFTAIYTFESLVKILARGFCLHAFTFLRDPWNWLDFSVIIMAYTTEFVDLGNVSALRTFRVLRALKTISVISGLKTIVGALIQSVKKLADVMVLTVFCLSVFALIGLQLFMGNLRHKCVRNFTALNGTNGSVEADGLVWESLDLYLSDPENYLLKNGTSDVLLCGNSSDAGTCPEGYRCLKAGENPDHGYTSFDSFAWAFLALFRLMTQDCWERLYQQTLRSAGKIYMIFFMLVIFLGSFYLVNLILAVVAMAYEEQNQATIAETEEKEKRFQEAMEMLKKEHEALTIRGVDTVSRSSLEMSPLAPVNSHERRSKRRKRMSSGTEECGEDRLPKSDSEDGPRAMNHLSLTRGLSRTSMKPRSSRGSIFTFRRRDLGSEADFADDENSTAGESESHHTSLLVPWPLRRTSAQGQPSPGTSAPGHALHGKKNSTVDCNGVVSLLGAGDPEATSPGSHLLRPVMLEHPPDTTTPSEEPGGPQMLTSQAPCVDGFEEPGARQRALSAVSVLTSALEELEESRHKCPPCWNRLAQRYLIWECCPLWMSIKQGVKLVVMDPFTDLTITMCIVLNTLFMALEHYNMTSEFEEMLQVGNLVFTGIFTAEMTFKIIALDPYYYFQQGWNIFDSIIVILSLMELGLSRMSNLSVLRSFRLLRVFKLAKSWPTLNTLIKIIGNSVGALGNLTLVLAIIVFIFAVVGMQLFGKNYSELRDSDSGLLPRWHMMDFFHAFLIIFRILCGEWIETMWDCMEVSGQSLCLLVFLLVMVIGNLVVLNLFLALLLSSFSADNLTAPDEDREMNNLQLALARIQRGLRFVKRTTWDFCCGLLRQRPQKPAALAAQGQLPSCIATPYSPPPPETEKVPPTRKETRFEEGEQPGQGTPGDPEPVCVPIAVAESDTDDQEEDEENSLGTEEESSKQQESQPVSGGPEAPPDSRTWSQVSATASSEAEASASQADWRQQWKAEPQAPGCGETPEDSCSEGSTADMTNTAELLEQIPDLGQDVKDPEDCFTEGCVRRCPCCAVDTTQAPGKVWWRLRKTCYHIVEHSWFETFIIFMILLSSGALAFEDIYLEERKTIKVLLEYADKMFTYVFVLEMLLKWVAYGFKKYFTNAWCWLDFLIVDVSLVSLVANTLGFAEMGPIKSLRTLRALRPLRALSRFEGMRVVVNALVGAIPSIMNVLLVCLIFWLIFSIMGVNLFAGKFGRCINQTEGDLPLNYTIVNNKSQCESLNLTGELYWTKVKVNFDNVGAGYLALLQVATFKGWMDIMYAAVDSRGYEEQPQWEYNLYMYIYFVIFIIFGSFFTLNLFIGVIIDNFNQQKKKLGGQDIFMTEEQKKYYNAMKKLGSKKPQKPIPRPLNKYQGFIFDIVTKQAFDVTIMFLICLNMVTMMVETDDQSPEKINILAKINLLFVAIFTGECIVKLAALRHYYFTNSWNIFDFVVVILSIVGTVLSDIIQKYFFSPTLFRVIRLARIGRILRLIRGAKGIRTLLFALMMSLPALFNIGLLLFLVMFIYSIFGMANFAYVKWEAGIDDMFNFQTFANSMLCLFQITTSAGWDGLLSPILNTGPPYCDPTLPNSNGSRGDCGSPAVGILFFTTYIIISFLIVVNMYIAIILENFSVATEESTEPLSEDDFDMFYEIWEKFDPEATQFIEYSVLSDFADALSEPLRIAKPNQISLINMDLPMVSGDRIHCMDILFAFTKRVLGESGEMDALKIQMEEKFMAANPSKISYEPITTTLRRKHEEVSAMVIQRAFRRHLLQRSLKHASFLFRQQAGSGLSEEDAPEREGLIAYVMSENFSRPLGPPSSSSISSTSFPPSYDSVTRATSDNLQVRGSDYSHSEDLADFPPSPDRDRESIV

CYP2D6 = CYP2D6 (Homo sapiens, UniProt P10635); test: biochemical
Sequence of CYP2D6 (P10635 whole entry): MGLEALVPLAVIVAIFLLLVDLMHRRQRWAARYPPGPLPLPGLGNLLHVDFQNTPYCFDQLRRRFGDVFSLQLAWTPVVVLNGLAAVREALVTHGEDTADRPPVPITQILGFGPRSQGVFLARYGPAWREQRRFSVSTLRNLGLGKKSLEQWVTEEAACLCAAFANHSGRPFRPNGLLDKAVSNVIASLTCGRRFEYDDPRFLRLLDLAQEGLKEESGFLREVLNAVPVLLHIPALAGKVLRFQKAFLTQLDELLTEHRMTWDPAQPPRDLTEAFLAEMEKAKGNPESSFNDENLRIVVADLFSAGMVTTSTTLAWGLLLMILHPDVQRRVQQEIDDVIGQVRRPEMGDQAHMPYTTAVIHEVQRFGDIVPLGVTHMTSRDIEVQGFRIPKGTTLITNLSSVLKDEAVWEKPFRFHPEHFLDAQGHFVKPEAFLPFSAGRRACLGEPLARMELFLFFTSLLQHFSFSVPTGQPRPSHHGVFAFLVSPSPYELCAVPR

ALK-positive tumours = test: Phase 1 trial: clinical activity, tumour response by RECIST 1.1; assay type: in vivo, human; conditions: for Best overall response: Complete response / Best overall response: Progressive disease / Best overall response: Stable disease / Objective response: Complete response + partial response / Best overall response: Partial response: ALK-positive NSCLC, 40 mg every 8 hours; for Best overall response: Partial response: confirmed and unconfirmed
Protocol: The overall tumour response in all patients with measurable disease was evaluated, using Response Evaluation Criteria in Solid Tumors, version 1.1,[16] completed at times of radiologic assessment at weeks 4 and 8 after dosing and every 8 weeks thereafter. For patients without measurable disease at study entry, radiologic assessment was done as per investigator discretion.
While tumour response data were collected from 66 patients, here, we present response data only for patients with ALK-positive tumour samples (n = 22) receiving the RP2D (40 mg Q8h).

CYP3A4 = CYP3A4 (Homo sapiens, UniProt P08684); test: biochemical
Sequence of CYP3A4 (P08684 whole entry): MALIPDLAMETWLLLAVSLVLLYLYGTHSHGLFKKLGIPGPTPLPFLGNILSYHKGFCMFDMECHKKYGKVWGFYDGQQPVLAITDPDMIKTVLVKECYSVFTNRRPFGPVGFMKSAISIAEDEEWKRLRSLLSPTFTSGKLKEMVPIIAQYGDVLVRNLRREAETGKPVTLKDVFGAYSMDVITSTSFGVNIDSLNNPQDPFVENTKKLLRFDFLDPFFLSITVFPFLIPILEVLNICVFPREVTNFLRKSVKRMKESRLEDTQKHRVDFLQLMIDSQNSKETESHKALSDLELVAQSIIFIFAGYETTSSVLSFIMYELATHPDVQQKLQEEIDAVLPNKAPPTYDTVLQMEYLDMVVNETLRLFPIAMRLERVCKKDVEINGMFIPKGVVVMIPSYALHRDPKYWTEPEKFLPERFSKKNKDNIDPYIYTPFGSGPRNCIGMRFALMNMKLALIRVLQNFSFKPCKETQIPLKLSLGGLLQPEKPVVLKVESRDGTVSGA

hERG [3] = biological target: T1, hERG; test: hERG channel functional assay; assay type: biochemical; conditions: read-out: IC50, inhibition of the hERG channel, functional assay
[4] = Phase 1 trial: plasma pharmacokinetics of TSR-011 IR (LC-MS/MS, noncompartmental analysis); assay type: in vivo, human
Protocol: To evaluate PK and establish the RP2D, blood samples were collected from all patients in the phase 1 dose-escalation trial at daily doses of 30–480 mg.
Plasma samples were processed through a Biotage (Uppsala, Sweden) ISOLUTE SLE + 200 μL of a 96-well-supported liquid extraction plate. […] The validated range was 0.87–433.25 nmol/L. The assay interbatch precision, expressed as percent coefficients of variation, ranged from 6.6 to 11.7%, and the interbatch accuracy, expressed as percent bias, ranged from –4.7 to 0.5%.
PK parameters were calculated using noncompartmental analysis (Phoenix WinNonlin version 7.0, Pharsight Corporation, Mountain View, CA, USA).

[5] = Prior ALK inhibitor-treated (n = 8)
[6] = ALK-positive patients (n = 22), 40 mg Q8h
[7] = previously treated with an ALK inhibitor, RP2D
[8] = single dose, over the 16-fold increase in dose (30–480 mg)
[9] = steady state, over the sixfold increase in dose (80–480 mg)

T1 sequence (Q12809 whole entry): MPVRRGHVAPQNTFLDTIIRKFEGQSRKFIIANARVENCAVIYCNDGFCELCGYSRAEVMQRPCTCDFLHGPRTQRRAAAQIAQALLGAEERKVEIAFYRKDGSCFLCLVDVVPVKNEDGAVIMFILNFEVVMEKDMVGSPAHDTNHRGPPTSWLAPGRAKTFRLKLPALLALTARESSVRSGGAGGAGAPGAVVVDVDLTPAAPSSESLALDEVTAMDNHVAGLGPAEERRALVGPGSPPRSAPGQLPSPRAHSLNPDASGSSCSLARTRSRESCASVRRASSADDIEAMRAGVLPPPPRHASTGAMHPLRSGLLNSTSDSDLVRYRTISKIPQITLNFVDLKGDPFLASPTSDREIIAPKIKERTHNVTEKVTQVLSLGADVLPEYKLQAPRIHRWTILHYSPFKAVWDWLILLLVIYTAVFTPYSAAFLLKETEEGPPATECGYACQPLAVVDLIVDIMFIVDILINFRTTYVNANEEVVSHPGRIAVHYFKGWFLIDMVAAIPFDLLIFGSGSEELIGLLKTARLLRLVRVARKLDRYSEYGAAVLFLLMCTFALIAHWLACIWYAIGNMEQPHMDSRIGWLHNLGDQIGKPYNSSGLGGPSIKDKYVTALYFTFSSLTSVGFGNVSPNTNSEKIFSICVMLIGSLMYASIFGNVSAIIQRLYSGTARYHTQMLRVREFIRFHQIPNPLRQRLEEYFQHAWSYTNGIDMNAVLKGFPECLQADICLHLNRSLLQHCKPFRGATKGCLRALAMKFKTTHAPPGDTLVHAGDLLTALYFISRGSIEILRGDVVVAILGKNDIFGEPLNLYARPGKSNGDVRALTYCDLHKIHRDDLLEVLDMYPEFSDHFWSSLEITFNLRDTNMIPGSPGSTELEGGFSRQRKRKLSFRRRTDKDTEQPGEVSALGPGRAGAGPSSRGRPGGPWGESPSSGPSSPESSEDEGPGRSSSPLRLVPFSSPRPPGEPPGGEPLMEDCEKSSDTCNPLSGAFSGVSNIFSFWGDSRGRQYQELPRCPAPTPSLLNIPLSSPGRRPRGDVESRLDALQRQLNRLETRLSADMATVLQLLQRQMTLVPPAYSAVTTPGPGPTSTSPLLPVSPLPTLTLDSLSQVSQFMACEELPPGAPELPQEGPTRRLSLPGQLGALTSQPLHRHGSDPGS

CC(C)NC(=O)[C@H]1CC[C@@H](n2c(NC(=O)c3ccc(F)cc3)nc3ccc(CN4CCC(C(C)(C)O)CC4)cc32)CC1 [TSR-011]
IC50 (hERG [1]): 2.3 µM | Reversibility of cardiovascular parameters ([2]; oral 3, 10 and 15 mg/kg): returned to normal by the subsequent dose | PR interval ([2]; oral doses of 3, 10 and 15 mg/kg): dose-dependent prolongation of the PR interval | Body temperature ([2]; oral, at 15 mg/kg): mild and transient increase in body temperature | QRS duration ([2]; oral, at 10 and 15 mg/kg): small and dose-dependent increase in QRS duration | Heart rate ([2]; oral, at ≥ 3 mg/kg): Increased heart rate | QTc ([2]; oral, at ≥ 3 mg/kg): prolonged QTc | Pulse pressure ([2]; oral, at ≥ 10 mg/kg): decreased pulse pressure | IC50 (hNav1.5): 7.6 µM | IC50 (CYP2D6): 32.9 µM | Partial response rate (ALK-positive tumours; ALK inhibitor-naive, RP2D): 42.9% | Stable disease, patients (ALK-positive tumours; ALK inhibitor-naive, RP2D): 57.1% | Objective response rate (ALK-positive tumours; ALK pre-treated setting, RP2D): 12.5% | Best overall response: Complete response (ALK-positive tumours; ALK inhibitor-naïve (n = 14)): 0 n (%) | Best overall response: Progressive disease (ALK-positive tumours; ALK inhibitor-naïve (n = 14)): 0 n (%) | Best overall response: Stable disease (ALK-positive tumours; ALK inhibitor-naïve (n = 14)): 8 (57.1) n (%) | Objective response: Complete response + partial response (ALK-positive tumours; ALK inhibitor-naïve (n = 14)): 6 (42.9) n (%) | Best overall response: Partial response (ALK-positive tumours; ALK inhibitor-naïve (n = 14)): 6 (42.9) n (%) | Best overall response: Complete response (ALK-positive tumours; All patients (N = 22)): 0 n (%) | Best overall response: Progressive disease (ALK-positive tumours; All patients (N = 22)): 1 (4.5) n (%) | Best overall response: Stable disease (ALK-positive tumours; All patients (N = 22)): 14 (63.6) n (%) | Objective response: Complete response + partial response (ALK-positive tumours; All patients (N = 22)): 7 (31.8) n (%) | Best overall response: Partial response (ALK-positive tumours; All patients (N = 22)): 7 (31.8) n (%) | Best overall response: Complete response (ALK-positive tumours; [5]): 0 n (%) | Best overall response: Progressive disease (ALK-positive tumours; [5]): 1 (12.5) n (%) | Best overall response: Stable disease (ALK-positive tumours; [5]): 6 (75.0) n (%) | Objective response: Complete response + partial response (ALK-positive tumours; [5]): 1 (12.5) n (%) | Best overall response: Partial response (ALK-positive tumours; [5]): 1 (12.5) n (%) | Complete response (ALK-positive tumours; [6]): No ALK-positive patient had a complete response | Stable disease, number of patients (ALK-positive tumours; [6]): 14 | Partial response, number of patients (ALK-positive tumours; ALK-positive patients (n = 22), 40 mg Q8h, six confirmed, one unconfirmed): seven | Response of a patient with neuroblastoma harbouring ALK mutation (R1275Q) (ALK-positive tumours; one patient): did not respond | Partial response rate (ALK-positive tumours; [7]): 12.5% | Stable disease, patients (ALK-positive tumours; [7]): 75.0% | IC50 (CYP3A4): 23.3 µM | IC50 (hERG [3]): 0.172 µM | Highest concentration observed ([4]; 40-mg IR TID cohort): 2599.50 nmol/L | Mean Ctrough ([4]; 40-mg TID (Q8h), steady state day 29): 351.38 nM | Cmax at 696 h ([4]; human, plasma, po, 40-mg TID (Q8h), steady state day 29): 528 nM | half-life ([4]; human, plasma, po, cycle 1/day 1, across cohorts): 7 to 27 h | Vd/F ([4]; human, plasma, po, cycle 1/day 1, across cohorts, read-out: Apparent volume of distribution): 188 to 1620 L | Cmax ([4]; human, plasma, cycle 2/day 1, daily oral 80–480 mg): 447 to 3330 nM | Tmax ([4]; human, plasma, cycle 2/day 1, daily oral 80–480 mg, read-out: Median tmax): 2 to 6 h | Increase in geometric mean AUC from 0 to 24 h [4, 8]: 42 fold | Increase in geometric mean Cmax [4, 8]: 41 fold | Increase in exposure for AUC from time 0 to the last measurable concentration [4, 9]: 2.9 fold | Increase in exposure for Cmax [4, 9]: 3.3 fold
